# Measured values from paper PMC5352051, “Identification of a novel Polo-like kinase 1 inhibitor that specifically blocks the functions of Polo-Box domain” (Oncotarget, 2016).
# Assays:
# Plk2 PBD = target: T1, Plk2 PBD (Homo sapiens, UniProt Q9NYY3); assay: Fluorescence polarization assay, Plk2 PBD / FITC-labeled phosphopeptide; assay type: binding
# T1 construct: (326-603 aa), Plk2 (355-685 aa), and Plk3 (335-646 aa); GST (N); made in house; host or cells: E. coli Rosetta BL21(DE3)
# T1 sequence (Q9NYY3 355-685): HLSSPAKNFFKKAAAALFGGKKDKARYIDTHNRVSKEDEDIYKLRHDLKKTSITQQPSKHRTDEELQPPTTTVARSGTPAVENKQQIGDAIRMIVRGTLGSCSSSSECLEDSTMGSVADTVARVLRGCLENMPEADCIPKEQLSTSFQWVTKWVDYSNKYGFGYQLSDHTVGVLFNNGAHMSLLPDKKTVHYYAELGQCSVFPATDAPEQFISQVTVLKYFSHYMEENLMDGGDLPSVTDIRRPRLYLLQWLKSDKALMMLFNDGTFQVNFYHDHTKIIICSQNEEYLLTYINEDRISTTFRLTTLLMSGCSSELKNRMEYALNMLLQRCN
# Method: FP assay was performed as follow. Briefly, 30 μL Plk1 PBD proteins (400 nM) were incubated with 0.3 μL tested compounds (1 mg/mL) with shaking for 1 hr at room temperature (RT) prior to addition of 30 μL FITC-Poloboxtide (FITC-GPMQSpTPLNG-OH; λex/λem: 485/535 nm; 60 nM) in FP buffer (50 mM Tris-HCl, 10 mM NaCl, 1 mM EDTA pH8.0). Three wells containing 30 μL FITC-Poloboxtide (60 nM) and 30 μL Plk1 PBD (400 nM) were used as negative control (0% inhibition); three wells containing 60 μL FITC-Poloboxtide (30 nM) only were used as positive control (100% inhibition). Fluorescence polarization was analyzed after incubation of FITC-Poloboxtide for 15 min in a 384-well black opaque microplate (Cat# 6007270, PerkinElmer) using Envision Multilabel Reader (PerkinElmer) at 25°C. We calculated the percentage of inhibition for each sample as follows: Inhibition(%)=Negative−Sample/Negative−Positive×100%
# We plotted the inhibition values and determined IC50 using GraphPad Prism5.0. Together with the FITC-labeled peptides used for Plk1 PBD as mentioned above, the following peptides were used for specificity assays, FITC-GPMQTSpTPKNG-OH (Plk2 PBD), FITC-GPLATSpTPKNG-OH (Plk3 PBD). As described above for the FP assay, proteins were used at the following final concentrations: Plk1 PBD, 200 nM; Plk2 PBD, 450 nM; Plk3 PBD, 600 nM. All FITC-labeled peptides were chemically synthesized (China Peptides Co., Ltd., Shanghai) and further verified by mass spectrometry, and the purity is more than 95.0%.
# U-2OS = assay: MTT assay; assay type: cell-based; conditions: Homo sapiens, U2OS, Bone, tumor, read-out: IC50 proliferation
# Method: (§1) The MTT assay was performed as described. In brief, cells were seeded at 3000~5000 cells/well into 96-well plates (200 μL/well) and incubated overnight. We replaced the growth medium with fresh medium containing T521 at several concentrations (two-fold dilutions and the initial concentration is 50 μM, 10 reactions total). After further incubation for 48 hrs in the presence of T521, the medium was removed from all wells and the cells were incubated with 200 μL of fresh medium for additional 24 hrs. We then added 22 μL of MTT solution (Amresco; 5 mg/mL in PBS) to each well and incubated the plate for 4 hrs at 37°C. After removing the medium, we dissolved the purple MTT-formazan crystals by adding 150 μL of DMSO to each well and recorded absorbance at 560 nm by Envision Multilabel Reader (PerkinElmer). The inhibition curve was plotted to determine the IC50 of various cell lines using GraphPad Prism5.0.
# MCF-7 = assay: MTT assay; assay type: cell-based; conditions: Homo sapiens, MCF7; MCF-7, Breast, tumor; read-out: IC50 proliferation
# Method: as §1
# PC3 = assay: MTT assay; assay type: cell-based; conditions: Homo sapiens, PC-3; PC3, Prostate, tumor; read-out: IC50 proliferation
# Method: as §1
# SaOS-2 = assay: MTT assay; assay type: cell-based; conditions: Homo sapiens; SaOS-2, Bone, tumor; read-out: IC50 proliferation
# Method: as §1
# SH-SY5Y = assay: MTT assay; assay type: cell-based; conditions: Homo sapiens, Brain, tumor, read-out: IC50 proliferation
# Method: as §1
# HT29 = assay: MTT assay; assay type: cell-based; conditions: Homo sapiens, HT-29; HT29, Colon, tumor; read-out: IC50 proliferation
# Method: as §1
# L02 = assay: MTT assay; assay type: cell-based; conditions: Homo sapiens; L02, Liver, normal; read-out: IC50 proliferation
# Method: as §1
# Bel7402 = assay: MTT assay; assay type: cell-based; conditions: Homo sapiens, Bel-7402; Bel7402, Liver, tumor; read-out: IC50 proliferation
# Method: as §1
# HepG2 = assay: MTT assay; assay type: cell-based; conditions: Homo sapiens; HepG2, Liver, tumor; read-out: IC50 proliferation
# Method: as §1
# HeLa = assay: MTT assay; assay type: cell-based; conditions: Homo sapiens, Cervix, tumor, read-out: IC50 proliferation
# Method: as §1
# MRC-5 = assay: MTT assay; assay type: cell-based; conditions: Homo sapiens, MRC5; MRC-5, Lung, normal; read-out: IC50 proliferation
# Method: as §1
# HEK-293 = assay: MTT assay; assay type: cell-based; conditions: Homo sapiens, HEK293; HEK-293, Kidney, normal; read-out: IC50 proliferation
# Method: as §1
# HCT-116 = assay: MTT assay; assay type: cell-based; conditions: Homo sapiens; HCT-116, Colon, tumor; read-out: IC50 proliferation
# Method: as §1
# A549 = assay: MTT assay; assay type: cell-based; conditions: Homo sapiens; A549, Lung, tumor; read-out: IC50 proliferation
# Method: as §1
smiles,measurement,setting,value
"CCS(=O)(=O)c1oc(-c2ccc(F)cc2)nc1S(=O)(=O)c1ccccc1 [T521, 5-(ethylsulfonyl)-2-(4-fluorophenyl)-4-(phenylsulfonyl) oxazole]",IC50,"Plk2 PBD; FP assay, 1 hr preincubation at RT, read-out: Apparent IC50",> 500 µM
same,inhibition of binding of PBD to FITC-labeled phosphopeptide,Plk2 PBD; concentration as high as 500 μM,little inhibition
same,IC50,U-2OS,1.06 µM
same,IC50,MCF-7,1.58 µM
same,IC50,PC3,1.09 µM
same,IC50,SaOS-2,1.56 µM
same,IC50,SH-SY5Y,1.37 µM
same,IC50,HT29,3.86 µM
same,IC50,L02,7.11 µM
same,IC50,Bel7402,5.13 µM
same,IC50,HepG2,3.17 µM
same,IC50,HeLa,4.43 µM
same,IC50,MRC-5,2.64 µM
same,IC50,HEK-293,8.66 µM
same,IC50,HCT-116,3.55 µM
same,IC50,A549,3.56 µM
